Patent US9247759B2, “Identification of human T2R receptors that respond to bitter compounds that elicit the bitter taste in compositions, and the use thereof in assays to identify compounds that inhibit (block) bitter taste in compositions and use thereof” (SENOMYX, INC., priority 2007, dated 2016)
Like-named read-outs stand apart in the source and are kept apart here.

How the values were obtained:
hT2R14 [1] = target: T1, hT2R14 (Homo sapiens (Human), UniProt Q9NYV8); experiment: hT2R14 antagonist high-throughput FLIPR assay, stable cell line with G16g44, agonist aristolochic acid; format: cell-based
How it was run: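 HEK293 cells stably expressing hT2R14 with chimeric G16g44 were stimulated with aristolochic acid (3 μM), giving 70-80% of maximal receptor activity. Test compounds were added together with the agonist, and antagonism was read as fluorescent calcium signal on FLIPR.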

hT2R3 = hT2R3 (Homo sapiens (Human), UniProt Q9NYW6); experiment: hT2R panel inhibition, transient HEK293 G16g44, agonist Chloroquine pH6.5 50 μM; format: cell-based; settings: HEK293, compound at 25 μM; receptor activated to EC80 with the corresponding agonist; read-out: screening result against bitter receptor 3
How it was run: (§1)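 Here, inhibition reflects how much the test compound lowers activation of a transiently expressed human bitter receptor stimulated at EC80. Twenty-two such receptors were tested separately.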

hT2R5 = hT2R5 (Homo sapiens (Human), UniProt Q9NYW4); experiment: hT2R panel inhibition, transient HEK293 G16g44, agonist Picoline 10 mM; format: cell-based; settings: HEK293, compound at 25 μM
How it was run: as §1

hT2R10 = hT2R10 (Homo sapiens (Human), UniProt Q9NYW0); experiment: hT2R panel inhibition, transient HEK293 G16g44, agonist Strychnine 50 μM; format: cell-based; settings: HEK293, read-out: screening result against bitter receptor 10, compound at 25 μM; receptor activated to EC80 with the corresponding agonist
hT2R13 = hT2R13 (Homo sapiens (Human), UniProt Q9NYV9); experiment: hT2R panel inhibition, transient HEK293 G16g44, agonist Oxyphenonium 1 mM; format: cell-based; settings: HEK293, compound at 25 μM
Method: (§2) Specifically, in order to evaluate the inhibitory selectivity of the Compound C compound, this compound was tested against 22 human T2Rs which were deorphaned by Senomyx. These receptors and the bitter ligands that activate these human T2Rs are reported in earlier patent applications which are incorporated by reference herein. These 22 human T2Rs are hT2R1, 3, 4, 5, 7, 8, 9, 10, 13, 14, 16, 44, 51, 54, 55, 61, 63, 64, 65, 67, 71 and 75. The amino acid and nucleic acid sequences of all of these T2Rs may be found in these earlier patent applications. These human T2Rs were each individually transiently transfected into HEK293 cells that stably express the promiscuous G protein G16g44 and functional assays were effected using these receptors as disclosed in these same patent applications. […] The ligands were used at EC80 concentration levels. The list of bitter ligands utilized and the tested ligand concentrations are contained in Table 5 of this example.
(§3) Relating to the foregoing, FIG. 5 contains experimental results wherein Compound C was tested with different agonist compounds. The inhibition activity is represented by the reduction of receptor activity in the presence of Compound C. […] These 13 hT2Rs are hT2R3, 7, 10, 14, 16, 44, 51, 55, 61, 63, 64, 65, and 71.

hT2R14 [2] = target: T1, hT2R14; experiment: hT2R panel inhibition, transient HEK293 G16g44, agonist Aristolochic Acid 2 μM; format: cell-based; settings: HEK293, compound at 25 μM
How it was run: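 Each hT2R was transiently transfected into HEK293 cells stably expressing G16g44 and assayed functionally for inhibition of agonist response. Agonists were applied at EC80: andrographolide at 0.5 mM for hT2R8 and aristolochic acid at 2 μM for hT2R14.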

hT2R16 = hT2R16 (Homo sapiens (Human), UniProt Q9NYV7); experiment: hT2R panel inhibition, transient HEK293 G16g44, agonist Salicin 1 mM; format: cell-based; settings: HEK293, compound at 25 μM; receptor activated to EC80 with the corresponding agonist; read-out: screening result against bitter receptor 16
How it was run: as §1

hT2R44 = experiment: hT2R panel inhibition, transient HEK293 G16g44, agonist Denatonium 0.5 μM; format: cell-based, human; settings: compound at 25 μM; receptor activated to EC80 with the corresponding agonist
How it was run: as §1

hT2R54 = experiment: hT2R panel inhibition, transient HEK293 G16g44, agonist Ranitidine 5 mM; format: cell-based, human; settings: compound at 25 μM; receptor activated to EC80 with the corresponding agonist
How it was run: as §1

hT2R55 = experiment: hT2R panel inhibition, transient HEK293 G16g44, agonist Cinchonine 150 μM; format: cell-based, human; settings: compound at 25 μM; receptor activated to EC80 with the corresponding agonist
How it was run: as §1

hT2R61 = hT2R61 (Homo sapiens (Human), UniProt P59537); experiment: hT2R panel inhibition, transient HEK293 G16g44, agonist Aristolochic Acid 25 nM; format: cell-based; settings: HEK293, compound at 25 μM
How it was run: as §1

hT2R63 = experiment: hT2R panel inhibition, transient HEK293 G16g44, agonist Caffeine 1 mM or Andrographolide 100 μM; format: cell-based, human; settings: compound at 25 μM; receptor activated to EC80 with the corresponding agonist
How it was run: as §1

hT2R64 = hT2R64 (Homo sapiens (Human), UniProt P59538); experiment: hT2R panel inhibition, transient HEK293 G16g44, agonist Aristolochic Acid 1 μM; format: cell-based; settings: HEK293, compound at 25 μM; receptor activated to EC80 with the corresponding agonist; read-out: screening result against bitter receptor 64
How it was run: as §1

hT2R71 = hT2R71 (Homo sapiens (Human), UniProt P59536); experiment: hT2R panel inhibition, transient HEK293 G16g44, agonist Picric Acid 10 μM; format: cell-based; settings: HEK293, compound at 25 μM
How it was run: as §1

hT2R4 = hT2R4 (Homo sapiens (Human), UniProt Q9NYW5); experiment: hT2R panel inhibition, transient HEK293 G16g44, agonist Chloroquine pH6.5 5 mM; format: cell-based; settings: HEK293, compound at 25 μM; receptor activated to EC80 with the corresponding agonist; class symbols; read-out: screening result against bitter receptor 4
How it was run: as §1

hT2R7 = hT2R7 (Homo sapiens (Human), UniProt Q9NYW3); experiment: hT2R panel inhibition, transient HEK293 G16g44, agonist Chloroquine pH6.5 10 mM; format: cell-based; settings: HEK293, compound at 25 μM
How it was run: as §1

hT2R9 = hT2R9 (Homo sapiens (Human), UniProt Q9NYW1); experiment: hT2R panel inhibition, transient HEK293 G16g44, agonist Ofloxacin 1 mM; format: cell-based; settings: HEK293, compound at 25 μM; receptor activated to EC80 with the corresponding agonist; read-out: screening result against bitter receptor 9
Method: as §2, §3

hT2R51 = hT2R51 (Homo sapiens (Human), UniProt P59533); experiment: hT2R panel inhibition, transient HEK293 G16g44, agonist Prop 2.5 μM; format: cell-based; settings: HEK293, compound at 25 μM; receptor activated to EC80 with the corresponding agonist; read-out: screening result against bitter receptor 51
How it was run: as §1

hT2R65 = experiment: hT2R panel inhibition, transient HEK293 G16g44, agonist Oleuropein 1 mM; format: cell-based, human; settings: compound at 25 μM; receptor activated to EC80 with the corresponding agonist
How it was run: as §1

hT2R67 = experiment: hT2R panel inhibition, transient HEK293 G16g44, agonist Andrographolide 5 μM; format: cell-based, human; settings: compound at 25 μM; receptor activated to EC80 with the corresponding agonist
How it was run: as §1

hT2R75 = hT2R75 (Homo sapiens (Human), UniProt P59540); experiment: hT2R panel inhibition, transient HEK293 G16g44, agonist Strychnine 1 μM; format: cell-based; settings: HEK293, read-out: screening result against bitter receptor 75, compound at 25 μM; receptor activated to EC80 with the corresponding agonist
[3] = receptor activated to EC80 with the corresponding agonist, read-out: screening result against bitter receptor 5
[4] = receptor activated to EC80 with the corresponding agonist, read-out: screening result against bitter receptor 14
[5] = receptor activated to EC80 with the corresponding agonist, read-out: screening result against bitter receptor 61
[6] = receptor activated to EC80 with the corresponding agonist, read-out: screening result against bitter receptor 71

Chain of hT2R5 (Q9NYW4 whole entry): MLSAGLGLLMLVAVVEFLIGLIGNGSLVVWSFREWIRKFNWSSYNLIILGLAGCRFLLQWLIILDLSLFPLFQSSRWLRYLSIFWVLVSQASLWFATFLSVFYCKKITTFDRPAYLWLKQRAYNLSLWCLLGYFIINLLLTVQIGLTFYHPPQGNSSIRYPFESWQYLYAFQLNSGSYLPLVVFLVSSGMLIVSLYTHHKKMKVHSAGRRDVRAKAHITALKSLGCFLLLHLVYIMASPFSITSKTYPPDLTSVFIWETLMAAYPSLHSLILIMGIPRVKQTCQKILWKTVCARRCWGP
Chain of hT2R61 (P59537 whole entry): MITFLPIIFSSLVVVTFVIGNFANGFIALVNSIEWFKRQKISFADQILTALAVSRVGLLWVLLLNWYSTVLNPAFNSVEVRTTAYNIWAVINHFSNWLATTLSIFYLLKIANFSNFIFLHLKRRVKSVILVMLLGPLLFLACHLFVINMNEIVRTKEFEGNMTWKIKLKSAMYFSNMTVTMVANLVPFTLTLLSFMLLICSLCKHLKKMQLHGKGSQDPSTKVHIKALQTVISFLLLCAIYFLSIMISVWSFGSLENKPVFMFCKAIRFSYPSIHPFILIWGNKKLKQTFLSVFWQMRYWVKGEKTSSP
Chain of hT2R71 (P59536 whole entry): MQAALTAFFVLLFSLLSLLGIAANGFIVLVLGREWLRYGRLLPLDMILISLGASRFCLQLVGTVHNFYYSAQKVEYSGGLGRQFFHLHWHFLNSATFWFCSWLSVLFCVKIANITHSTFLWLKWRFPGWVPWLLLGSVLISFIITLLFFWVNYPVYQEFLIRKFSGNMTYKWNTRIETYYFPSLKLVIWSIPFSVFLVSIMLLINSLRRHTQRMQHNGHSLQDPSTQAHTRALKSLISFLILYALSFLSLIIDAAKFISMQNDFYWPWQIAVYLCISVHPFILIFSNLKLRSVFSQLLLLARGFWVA
T1 sequence (Q9NYV8 whole entry): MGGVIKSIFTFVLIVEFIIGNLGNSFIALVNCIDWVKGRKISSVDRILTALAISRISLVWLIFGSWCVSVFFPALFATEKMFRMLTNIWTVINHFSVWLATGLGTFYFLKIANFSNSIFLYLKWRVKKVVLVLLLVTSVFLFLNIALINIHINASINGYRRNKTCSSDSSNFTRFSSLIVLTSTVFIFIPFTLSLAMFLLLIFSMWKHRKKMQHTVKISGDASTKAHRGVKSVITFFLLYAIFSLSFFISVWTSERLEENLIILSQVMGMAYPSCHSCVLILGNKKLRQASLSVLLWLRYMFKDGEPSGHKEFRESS
Chain of hT2R7 (Q9NYW3 whole entry): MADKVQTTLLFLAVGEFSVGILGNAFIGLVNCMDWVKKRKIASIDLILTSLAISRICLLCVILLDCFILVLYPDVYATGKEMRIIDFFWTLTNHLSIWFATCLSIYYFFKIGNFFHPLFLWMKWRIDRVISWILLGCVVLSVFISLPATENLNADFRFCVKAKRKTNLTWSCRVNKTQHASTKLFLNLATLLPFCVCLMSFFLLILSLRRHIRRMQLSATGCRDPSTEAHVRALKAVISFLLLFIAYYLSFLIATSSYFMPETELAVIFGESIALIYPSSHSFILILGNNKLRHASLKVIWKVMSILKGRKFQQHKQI
Chain of hT2R3 (Q9NYW6 whole entry): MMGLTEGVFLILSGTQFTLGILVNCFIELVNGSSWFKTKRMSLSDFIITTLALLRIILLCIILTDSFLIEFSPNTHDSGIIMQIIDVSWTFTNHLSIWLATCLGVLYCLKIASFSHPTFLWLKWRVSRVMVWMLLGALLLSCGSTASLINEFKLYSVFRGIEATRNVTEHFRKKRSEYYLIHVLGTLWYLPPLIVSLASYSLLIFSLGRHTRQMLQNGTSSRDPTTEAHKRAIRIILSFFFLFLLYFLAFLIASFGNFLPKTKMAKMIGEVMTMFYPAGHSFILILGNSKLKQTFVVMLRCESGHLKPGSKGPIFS
Chain of hT2R16 (Q9NYV7 whole entry): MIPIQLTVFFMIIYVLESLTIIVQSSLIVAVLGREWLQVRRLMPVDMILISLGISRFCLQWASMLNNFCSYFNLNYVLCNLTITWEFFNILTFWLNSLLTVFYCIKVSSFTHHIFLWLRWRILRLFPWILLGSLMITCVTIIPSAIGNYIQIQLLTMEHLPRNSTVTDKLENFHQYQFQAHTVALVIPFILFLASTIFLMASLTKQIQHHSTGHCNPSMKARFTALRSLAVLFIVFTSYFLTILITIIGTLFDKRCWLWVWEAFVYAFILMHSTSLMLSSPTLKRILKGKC
Chain of hT2R13 (Q9NYV9 whole entry): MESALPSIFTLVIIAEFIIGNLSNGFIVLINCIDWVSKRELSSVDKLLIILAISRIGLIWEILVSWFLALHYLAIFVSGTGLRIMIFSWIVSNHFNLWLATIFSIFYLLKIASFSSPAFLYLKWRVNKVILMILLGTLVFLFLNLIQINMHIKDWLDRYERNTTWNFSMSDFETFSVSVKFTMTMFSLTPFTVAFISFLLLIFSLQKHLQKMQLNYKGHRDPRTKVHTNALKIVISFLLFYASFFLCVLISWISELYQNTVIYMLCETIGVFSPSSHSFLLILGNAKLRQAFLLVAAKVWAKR
Chain of hT2R64 (P59538 whole entry): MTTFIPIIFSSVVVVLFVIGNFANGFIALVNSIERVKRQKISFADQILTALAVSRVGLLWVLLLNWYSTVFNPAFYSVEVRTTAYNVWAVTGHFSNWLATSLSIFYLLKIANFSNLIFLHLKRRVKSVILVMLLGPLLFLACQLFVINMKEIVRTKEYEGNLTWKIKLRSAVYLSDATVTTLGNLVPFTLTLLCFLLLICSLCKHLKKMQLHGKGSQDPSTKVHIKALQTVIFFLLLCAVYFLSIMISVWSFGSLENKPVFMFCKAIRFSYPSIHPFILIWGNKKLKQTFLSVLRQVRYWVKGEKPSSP
Chain of hT2R10 (Q9NYW0 whole entry): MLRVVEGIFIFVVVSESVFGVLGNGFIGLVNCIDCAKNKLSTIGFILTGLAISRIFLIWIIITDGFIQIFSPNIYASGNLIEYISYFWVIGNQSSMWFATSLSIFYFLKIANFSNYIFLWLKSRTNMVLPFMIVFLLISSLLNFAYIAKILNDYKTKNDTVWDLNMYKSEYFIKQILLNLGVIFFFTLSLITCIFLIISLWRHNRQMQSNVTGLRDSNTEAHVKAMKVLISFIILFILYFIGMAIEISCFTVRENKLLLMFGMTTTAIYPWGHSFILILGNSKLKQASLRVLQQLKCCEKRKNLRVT
Chain of hT2R4 (Q9NYW5 whole entry): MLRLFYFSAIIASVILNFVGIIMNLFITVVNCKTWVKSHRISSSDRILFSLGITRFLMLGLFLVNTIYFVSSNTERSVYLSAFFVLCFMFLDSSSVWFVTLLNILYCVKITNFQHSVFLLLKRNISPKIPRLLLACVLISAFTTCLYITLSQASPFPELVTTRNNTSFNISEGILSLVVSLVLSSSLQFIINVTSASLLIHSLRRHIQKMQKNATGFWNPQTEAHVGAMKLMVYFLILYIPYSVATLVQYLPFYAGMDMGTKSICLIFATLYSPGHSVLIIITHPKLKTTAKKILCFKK
Chain of hT2R51 (P59533 whole entry): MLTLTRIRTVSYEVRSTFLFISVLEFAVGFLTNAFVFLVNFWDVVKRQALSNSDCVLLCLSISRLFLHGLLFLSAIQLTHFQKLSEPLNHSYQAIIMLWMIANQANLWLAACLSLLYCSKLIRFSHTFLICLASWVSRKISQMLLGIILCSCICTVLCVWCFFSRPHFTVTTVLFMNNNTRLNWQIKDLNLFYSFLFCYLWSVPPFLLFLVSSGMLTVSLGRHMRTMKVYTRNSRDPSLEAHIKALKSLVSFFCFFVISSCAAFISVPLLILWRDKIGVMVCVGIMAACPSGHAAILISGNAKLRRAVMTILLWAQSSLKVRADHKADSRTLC
Chain of hT2R9 (Q9NYW1 whole entry): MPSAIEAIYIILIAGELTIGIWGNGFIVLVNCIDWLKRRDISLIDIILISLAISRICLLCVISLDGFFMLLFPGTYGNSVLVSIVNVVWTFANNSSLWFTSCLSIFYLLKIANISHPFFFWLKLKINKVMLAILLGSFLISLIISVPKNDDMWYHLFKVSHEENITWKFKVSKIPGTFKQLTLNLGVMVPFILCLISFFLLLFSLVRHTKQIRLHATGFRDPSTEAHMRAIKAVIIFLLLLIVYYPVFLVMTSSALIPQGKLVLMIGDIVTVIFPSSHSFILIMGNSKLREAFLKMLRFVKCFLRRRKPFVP
Chain of hT2R75 (P59540 whole entry): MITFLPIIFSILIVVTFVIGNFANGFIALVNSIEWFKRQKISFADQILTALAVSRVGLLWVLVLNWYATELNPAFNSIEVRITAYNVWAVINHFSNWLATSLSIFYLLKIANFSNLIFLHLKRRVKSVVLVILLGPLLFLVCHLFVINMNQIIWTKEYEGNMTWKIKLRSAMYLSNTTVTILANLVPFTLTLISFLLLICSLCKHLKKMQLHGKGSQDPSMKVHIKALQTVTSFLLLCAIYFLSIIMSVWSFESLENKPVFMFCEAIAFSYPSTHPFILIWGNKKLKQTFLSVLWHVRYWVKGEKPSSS

Row | Structure (SMILES) | inhibition at 25 µM (hT2R3) [%] | inhibition at 25 µM (hT2R5; [3]) [%] | inhibition at 25 µM (hT2R10) [%] | inhibition at 25 µM (hT2R14 [2]; [4]) [%] | inhibition at 25 µM (hT2R16) [%] | screening result against bitter receptor 44 (hT2R44) | screening result against bitter receptor 54 (hT2R54) | screening result against bitter receptor 55 (hT2R55) | inhibition at 25 µM (hT2R61; [5]) [%] | screening result against bitter receptor 63 (hT2R63) | inhibition at 25 µM (hT2R64) [%] | inhibition at 25 µM (hT2R71; [6]) [%] | other results
1 | COc1ccc(CN(Cc2ccc(OC)c(F)c2)S(=O)(=O)c2ccc(C(=O)O)cc2)cc1 [Example 5-41, 4-(N-(3-fluoro-4-methoxybenzyl)-N-(4-methoxybenzyl)sulfamoyl)-benzoic acid] | 40 to 60 | 20 to 40 | 40 to 60 | > 80 | 20 to 40 | +++ (60% to 80% inhibition = +++) | + (20% to 40% inhibition = +) | +++ (60% to 80% inhibition = +++) | > 80 | ++++ (80% or greater inhibition = ++++) | 60 to 80 | 40 to 60 | IC50 (hT2R14 [1]; read-out: IC50 on hT2R14 bitter receptor): 1.11 µM; inhibition at 25 µM (hT2R13; receptor activated to EC80 with the corresponding agonist, read-out: screening result against bitter receptor 13): 20 to 40%
2 | COc1cccc(CN(Cc2ccc(C(=O)O)cc2)S(=O)(=O)c2ccccc2)c1 [Example 5-101, 4-((N-(3-methoxybenzyl)phenylsulfonamido)methyl) benzoic acid] | 60 to 80 | 40 to 60 | 60 to 80 | > 80 | 40 to 60 | +++ (60% to 80% inhibition = +++) | ++ (40% to 60% inhibition = ++) | +++ (60% to 80% inhibition = +++) | > 80 | +++ (60% to 80% inhibition = +++) | > 80 | 60 to 80 | IC50 (hT2R14 [1]; Table C, read-out: hT2R14 IC50): 0.345 µM; inhibition at 25 µM (hT2R4): 40 to 60%; inhibition at 25 µM (hT2R7; receptor activated to EC80 with the corresponding agonist, read-out: screening result against bitter receptor 7): 60 to 80%; inhibition at 25 µM (hT2R9): 20 to 40%; inhibition at 25 µM (hT2R51): 40 to 60%; screening result against bitter receptor 65 (hT2R65): +++ (60% to 80% inhibition = +++); screening result against bitter receptor 67 (hT2R67): ++ (40% to 60% inhibition = ++); inhibition at 25 µM (hT2R75): 40 to 60%
3 | CCN(C(=O)CN(C)S(=O)(=O)c1ccc2c(c1)n(C)c(=O)c(=O)n2C)c1cccc(C)c1 [Example 6-11, N-ethyl-N-m-tolyl-2-(N,1,4-trimethyl-2,3-dioxo-1,2,3,4-tetrahydroquinoxaline-6-sulfonamido)acetamide] | – | – | – | – | – | – | – | – | – | – | – | – | IC50 (hT2R14 [1]; Table D, read-out: hT2R14 IC50): 14.9 µM; inhibition at 25 µM (hT2R5; receptor activated to EC80 with agonist, read-out: inhibition of bitter receptor 5): 20 to 40%; inhibition at 25 µM (hT2R7; receptor activated to EC80 with agonist, read-out: inhibition of bitter receptor 7): 20 to 40%; inhibition at 25 µM (hT2R13; receptor activated to EC80 with agonist, read-out: inhibition of bitter receptor 13): 40 to 60%; inhibition at 25 µM (hT2R14 [2]; receptor activated to EC80 with agonist, read-out: inhibition of bitter receptor 14): 20 to 40%; inhibition at 25 µM (hT2R61; receptor activated to EC80 with agonist, read-out: inhibition of bitter receptor 61): 20 to 40%; inhibition at 25 µM (hT2R71; receptor activated to EC80 with agonist, read-out: inhibition of bitter receptor 71): 20 to 40%
